Tested on: term pregnant, nulliparous women with an unripe cervix
Assay: Clinical phase II trial PPL17 (Parts A and B), subcutaneous tafoxiparin vs placebo
Assay type: in vivo, human
Conditions: for Labor induced with PGE-1, percent of subjects: placebo 10.2%; for Fetal distress as indication for operative delivery (ODFD), percent of patients: placebo 22.7%; for Percent of patients with operative delivery / proportion of women needing instrumental delivery: placebo 45.5%; for Labor induced with oxytocin, percent of subjects / proportion of women reaching spontaneous onset of labor with uncomplicated delivery: placebo 54.5%; for Labor induced with amniotomy, percent of subjects: placebo 56.8%; for Labor induction with Balloon catheter, percent of subjects: placebo 58.0%; for Labor induced, percent of subjects: placebo 70.5%; for number of women needing instrumental delivery: spontaneous onset of labor; for proportion reaching partus by vaginal delivery with no need for instrumental delivery nor caesarian section: placebo 48%; for proportion reaching partus by vaginal delivery with no need for instrumental delivery nor caesarian section / proportion of women needing instrumental delivery or caesarian section to reach partus: FIG. 5; for proportion of women needing instrumental delivery or caesarian section to reach partus: placebo 52%; for proportion of women needing instrumental delivery: vaginal mode of partus, FIG. 4; for number of subjects (women) that reach spontaneous onset of labor / percent of subjects (women) that reach spontaneous onset of labor: n=37
Experimental: A clinical phase II trial is performed as a randomized, double-blind, placebo-controlled, parallel-group proof of concept study (Part A) with a conditional dose finding follow up study (Part B) to evaluate the efficacy, safety, tolerability and dose response of subcutaneously administered tafoxiparin as a supplement to induction therapy in term pregnant, nulliparous women with an unripe cervix. The study is performed in Sweden and Finland (PPL17), and an EMA (European Medicines Agency) description of the study can be found on the EU Clinical Trials Register web (www.clinicaltrialsregister.eu/ctr-search/search?query=PPL17).
A total of 170 term pregnant women are randomized to receive either 300 mg of tafoxiparin, or corresponding placebo (vehicle), administered subcutaneously every 24±3 hours and up to a total of 7 doses, or until partus (Part A).
In the dose finding follow up study (Part B), a total of 164 term pregnant women are randomized to receive either 75 or 150 mg of tafoxiparin administered subcutaneously every 24±3 hours […] and up to a total of 7 doses, or until partus.
To assess the efficacy of tafoxiparin on cervical ripening/cervical ripening rate, during and up to the first seven days of treatment, measured by Bishop score. All women must be examined to check the cervical state before enrollment.
Time from start of treatment to increase in Bishop score of ≥2 points or spontaneous onset of labor, whichever comes first. Time from start of treatment to increase in Bishop score of ≥3 points or spontaneous onset of labor, whichever comes first. Time from start of treatment to increase in Bishop score of ≥4 points or spontaneous onset of labor, whichever comes first.
Cervical ripening as measured by change from baseline to end of treatment in Bishop Score. Time from onset of labor to partus, where onset of labor is defined as last record of 4 cm cervical dilatation visualized in the partogram and progress of labor, or last record of 4 cm of cervical dilatation in combination with amniotomy and intravenous administration oxytocin.
Proportion of women with spontaneous onset of labor (Response group I).
Tafoxiparin/Placebo is supplied by Dilafor AB to the site as kits designed to constitute 300 mg of tafoxiparin or placebo for daily administration. Apart from the active substance, each ml of study drug will constitute 0.015 M phosphate buffer. The study medication kit for each patient will contain 8 doses consisting of 2 vials containing a minimum extractable volume of 1.6 ml of 150 mg/ml of tafoxiparin or placebo. One dose is a reserve dose in case a dose is rendered unusable. The investigational product should be administered subcutaneously every 24±3hours by the site staff for up to 7 doses, or until partus. At each dosing time 1.0 ml of the drug will be extracted from each of the 2 vials and injected as separate s.c. injections in the abdominal or hip region.
Tafoxiparin/Placebo is supplied by Dilafor AB to the site as kits designed to constitute 75 or 150 mg of tafoxiparin for daily administration. Apart from the active substance, each ml of study drug will constitute 0.015 M phosphate buffer. The study medication kit for each patient will contain 8 doses consisting of 2 vials for each injection occasion containing a minimum extractable volume of 1.6 ml of 150 mg/ml of tafoxiparin or placebo. For subjects receiving 75 mg of tafoxiparin, one vial will contain active substance and one containing placebo. For subjects receiving 150 mg of tafoxiparin, both vials will contain active substance. One dose is a reserve dose in case a dose is rendered unusable. The investigational product should be administered subcutaneously every 24±3 hours by the site staff for up to 7 doses, or until partus. At each dosing time, 0.5 ml of the drug will be extracted from each of the 2 vials and injected as separate s.c. injections in the abdominal or hip region. […]

[1] = 150 mg, n = 85, listed as tafoxiparin
[2] = 150 mg, women with spontaneous onset of labor, of 36
[3] = 300 mg, n = 91, listed as tafoxiparin
[4] = 300 mg, women with spontaneous onset of labor, of 37

Substance: tafoxiparin
- Labor induced with PGE-1, percent of subjects [1]: 8.2%
- Fetal distress as indication for operative delivery (ODFD), percent of patients (150 mg, n = 85): 23.5%
- Percent of patients with operative delivery (150 mg, n = 85): 48.2%
- Labor induced with oxytocin, percent of subjects (150 mg, n = 85): (44.7%)
- Labor induced with oxytocin, percent of subjects [1]: 44.7%
- Labor induced with amniotomy, percent of subjects (150 mg, n = 85): (45.9%)
- Labor induced with amniotomy, percent of subjects [1]: 45.9%
- Labor induction with Balloon catheter, percent of subjects (150 mg, n = 85): (43.5%)
- Labor induction with Balloon catheter, percent of subjects [1]: 43.5%
- Labor induced, percent of subjects (150 mg, n = 85): (56.5%)
- Labor induced, percent of subjects [1]: 56.5%
- number of women reaching spontaneous onset of labor with uncomplicated delivery (150 mg, of 32 women): 23 women
- proportion of women reaching spontaneous onset of labor with uncomplicated delivery (150 mg, of 32 women): 71.9%
- number of women needing instrumental delivery or caesarian section to reach partus (150 mg, of 36 women): 13 women
- number reaching partus by vaginal delivery with no need for instrumental delivery nor caesarian section (150 mg, of 36 women): 23 women
- number of women achieving spontaneous onset of labor (150 mg, of 85 women): 36 women
- number of women needing instrumental delivery (150 mg, of 32 women): 9 women
- proportion reaching partus by vaginal delivery with no need for instrumental delivery nor caesarian section [2]: 63.9%
- proportion of women needing instrumental delivery or caesarian section to reach partus [2]: 36.1%
- proportion of women needing instrumental delivery (150 mg, women with spontaneous onset of labor, of 32, p 0.422): 28.1%
- time point of spontaneous onset of labor (change of Bishop score) (300 mg and 150 mg vs 75 mg and placebo, FIG. 3): achieved spontaneous onset of labor at an earlier time point
- proportion of women achieving spontaneous onset of labor (300 mg daily s.c., of 90 women, p=0.089, placebo 28.7%, FIG. 1): 41.1%
- number of subjects (women) that reach spontaneous onset of labor (300 mg, Study day 1): 2
- percent of subjects (women) that reach spontaneous onset of labor (300 mg, Study day 1): (5%)
- number of subjects (women) that reach spontaneous onset of labor (300 mg, Study day 2): 11
- percent of subjects (women) that reach spontaneous onset of labor (300 mg, Study day 2): (30%)
- number of subjects (women) that reach spontaneous onset of labor (300 mg, Study day 3): 18
- percent of subjects (women) that reach spontaneous onset of labor (300 mg, Study day 3): (49%)
- number of subjects (women) that reach spontaneous onset of labor (300 mg, Study day 4): 23
- percent of subjects (women) that reach spontaneous onset of labor (300 mg, Study day 4): (62%)
- number of subjects (women) that reach spontaneous onset of labor (300 mg, Study day 5): 30
- percent of subjects (women) that reach spontaneous onset of labor (300 mg, Study day 5): (81%)
- number of subjects (women) that reach spontaneous onset of labor (300 mg, Study day 6): 34
- percent of subjects (women) that reach spontaneous onset of labor (300 mg, Study day 6): (92%)
- number of subjects (women) that reach spontaneous onset of labor (300 mg, Study day 7): 37
- percent of subjects (women) that reach spontaneous onset of labor (300 mg, Study day 7): (100%)
- Fetal distress as indication for operative delivery (ODFD), number of patients (300 mg, n = 91): 11
- Labor induced with PGE-1, number of subjects (300 mg, n = 91): 5
- Labor induced with amniotomy, number of subjects (300 mg, n = 91): 50
- Labor induced with oxytocin, number of subjects (300 mg, n = 91): 45
- Labor induction with Balloon catheter, number of subjects (300 mg, n = 91): 42
- Labor induced, number of subjects (300 mg, n = 91, onset of labor with intervention): 53
- Labor induced with PGE-1, percent of subjects (300 mg, n = 91): (5.5%)
- Labor induced with PGE-1, percent of subjects [3]: 5.5%
- Fetal distress as indication for operative delivery (ODFD), percent of patients (300 mg, n = 91): 12.1%
- Percent of patients with operative delivery (300 mg, n = 91): 35.2%
- Labor induced with oxytocin, percent of subjects (300 mg, n = 91): (49.5%)
- Labor induced with oxytocin, percent of subjects [3]: 49.5%
- Labor induced with amniotomy, percent of subjects (300 mg, n = 91): (54.9%)
- Labor induced with amniotomy, percent of subjects [3]: 54.9%
- Labor induction with Balloon catheter, percent of subjects (300 mg, n = 91): (46.2%)
- Labor induction with Balloon catheter, percent of subjects [3]: 46.2%
- Labor induced, percent of subjects (300 mg, n = 91): (58.2%)
- Labor induced, percent of subjects [3]: 58.2%
- number of women reaching spontaneous onset of labor with uncomplicated delivery (300 mg, of 33 women): 27 women
- proportion of women reaching spontaneous onset of labor with uncomplicated delivery (300 mg, of 33 women): 81.8%
- number of women needing instrumental delivery or caesarian section to reach partus (300 mg, of 37 women): 10 women
- number reaching partus by vaginal delivery with no need for instrumental delivery nor caesarian section (300 mg, of 37 women): 27 women
- number of women achieving spontaneous onset of labor (300 mg, of 90 women): 37 women
- number of women needing instrumental delivery (300 mg, of 33 women): 6 women
- proportion reaching partus by vaginal delivery with no need for instrumental delivery nor caesarian section [4]: 73%
- proportion of women needing instrumental delivery or caesarian section to reach partus [4]: 27%
- proportion of women needing instrumental delivery (300 mg, women with spontaneous onset of labor, of 33, p=0.048): 18.2%
- achieving spontaneous onset of labor (conclusion) (all three doses 300 mg, 150 mg and 75 mg): effective for achieving spontaneous onset of labor
- mode of partus (conclusion) (all three doses 300 mg, 150 mg and 75 mg, compared to placebo): effective for a person to reach partus by vaginal delivery and with less need for instrumental delivery or caesarian section
- need for instrumental delivery (conclusion) (all three doses (300 mg, 150 mg and 75 mg), women with spontaneous onset of labor, vs placebo): effective in reducing the need for instrumental delivery
- need for intervention to achieve onset of labor (conclusion) (all three doses, compared to placebo): reduced the need for intervention in order to achieve onset of labor
- effect on cervical ripening (doses 300 mg and 150 mg, FIG. 3): beneficial effect on cervical ripening
- estimated cervical ripening rate measured by Bishop score (first 7 days of treatment, all three doses (300 mg, 150 mg and 75 mg) compared to placebo, FIG. 6): higher
- labor time up to vaginal delivery (partus) (women with spontaneous onset of labor, 300 mg (p=0.070), 150 mg (p 0.654), 75 mg (p 0.114) vs placebo, FIG. 2): shorter labor time up to vaginal delivery (partus) compared to placebo
